This is an account of results in PubChem BioAssay AID1996.

Converted amounts (≈) assume the structure as drawn. Some results are limits rather than exact numbers.

For the data set the following is noted: buffer; pH 7.4; 200.0 µM.
Take `CN1C(=O)C2C3c4ccccc4C(c4ccccc43)[C@@H]2C1=O` (stereo not given in full): the solubility (kinetic) – broadly, the concentration staying in solution when a stock, usually in DMSO, is diluted into the medium – amounted to 2 µg/mL (≈ 6.91 µM).
The result for `CC(=O)c1ccc(N2CCc3ccccc3C2)c([N+](=O)[O-])c1` reads 8.3 µg/mL (≈ 28 µM); that for `O=C(CCSCc1ccccc1Cl)NC1CCCCC1`, 8.1 µg/mL (≈ 26 µM).
`Cc1cccc(OCC(=O)NC2CCCC2)c1`: the solubility (kinetic) is 31.5 µg/mL (≈ 135 µM).
The result for `CCOC(=O)N1CCN(C(=O)COc2cccc3c2CCN(CC)C3=O)CC1` reads 44.5 µg/mL (≈ 114 µM); that for `NC(=[NH2+])SCC1=CCS(=O)(=O)C1.[Br-]`, 39.4 µg/mL; that for `N#C/C(=C(/O)c1ccc([N+](=O)[O-])cc1)c1nc2ccccc2[nH]1`, below 0.2 µg/mL.
As for `Cc1nc(C(F)(F)F)ccc1C(=O)Nc1ccccc1N1CCOCC1`, the solubility (kinetic) was 50.8 µg/mL (≈ 139 µM).
The result for `O=C(CN1CCCc2ccccc21)NCCc1ccc(Cl)cc1` reads 19.3 µg/mL (≈ 58.7 µM); that for `CCOc1ccc(S(=O)(=O)NC2=NCCCCC2)cc1`, above 44.5 µg/mL; that for `C=C1C(C(=O)Nc2ccc(OC)cc2)C1C(=O)Nc1ccc(OC)cc1` (stereo not given), 0.6 µg/mL (≈ 1.7 µM).
Take `COc1cc(/C=C/C(=O)OCC(=O)c2ccc[nH]2)cc(OC)c1OC`: the kinetic solubility was 9.4 µg/mL (≈ 27.2 µM).
In turn, `COc1ccc(-c2cc(C(=O)Nc3ccc(OC)c(OC)c3)no2)cc1` registered a kinetic solubility below 0.4 µg/mL.
The result for `Cc1ccc(CN(Cc2ccccc2)C(=S)Nc2ccccc2C)o1` reads 1.5 µg/mL (≈ 4.28 µM).
Compound `CC(C)=CCN1CCN(Cc2cccc3nccnc23)CC1CCO` (stereo not given) displayed a kinetic solubility above 51.1 µg/mL.
The result for `S=C(c1ccccc1)N1CCSCC1` reads above 33.5 µg/mL.
In turn, `CCN(CC)CCCNC(=O)c1cc(-c2ccc3c(c2)OCO3)on1` returned a kinetic solubility of 49.4 µg/mL (≈ 143 µM).
Regarding `O=C(CNC(=O)c1ccccc1F)N/N=C/c1cccs1`, the kinetic solubility is above 45.8 µg/mL.
With `CCN1CCN(CCC(=O)Nc2ccccc2)CC1`, the solubility (kinetic) is above 39.2 µg/mL.
For `CCn1cc(S(=O)(=O)Nc2ncccn2)cn1`, the solubility (kinetic) is above 38 µg/mL.
Then `Cc1cc(/C=C(\C#N)C(=O)NCc2ccco2)c(C)n1-c1cccnc1`, with 10.7 µg/mL (≈ 30.9 µM).
Consider `CC(C)NCC(=O)C12CC3CC(CC(C3)C1)C2`, for which the solubility (kinetic) amounted to 28.7 µg/mL (≈ 122 µM).
The compound `Cc1cc(C)cc(NS(=O)(=O)c2ccc(F)cc2)c1` showed a solubility (kinetic) above 41.9 µg/mL.
Then `Nc1ccc(C(=O)Nc2cccc3ncccc23)cc1`, with 37.3 µg/mL (≈ 142 µM).
Consider `COC(=O)c1scc(C)c1NC(=O)/C=C/C(=O)O`, for which the kinetic solubility was 38.8 µg/mL (≈ 144 µM).
`COc1ccc(F)cc1S(=O)(=O)N1CCN(c2ccccn2)CC1` gave a solubility (kinetic) of 6.1 µg/mL (≈ 17.4 µM).
The result for `CCOC(=O)C1=C(Nc2ccc(OC)cc2)OCC1=O` reads 39.5 µg/mL (≈ 142 µM).
With `CC(=O)OC(C(=O)NC1CCCCC1)c1cccc(F)c1` (stereo not given), the solubility (kinetic) is above 44 µg/mL.
Turning to `Cc1ccc(NS(=O)(=O)c2ccc3c(c2)NC(=O)CO3)cc1`, the solubility (kinetic) was 10.7 µg/mL (≈ 33.6 µM).
The result for `COc1cc(OC)cc(C(=O)NCCCCNC(=O)c2cc(OC)cc(OC)c2)c1` reads 1.1 µg/mL (≈ 2.64 µM).
The result for `Cc1ccc(NC(=O)NC(=O)c2ccccc2)cc1F` reads below 0.3 µg/mL; that for `O=C(NC(=S)Nc1ccccc1N1CCCC1)c1ccco1`, 25.3 µg/mL (≈ 80.2 µM); that for `O=C1c2ccccc2C(O)N1c1ccccc1` (stereo not given), above 33.8 µg/mL.
The result for `N#Cc1nc(COc2ccc(F)cc2)oc1N1CCCCC1` reads 11.7 µg/mL (≈ 38.8 µM); that for `COc1ccc(C=O)cc1OC(=O)N1CCOCC1`, above 39.8 µg/mL.
`CC1CN(C(=O)COC(=O)c2ccc(C#N)cc2)CC(C)O1` (stereo not given) registered a kinetic solubility above 45.3 µg/mL.
As to `COc1ccccc1N(C)S(=O)(=O)c1ccc(Cl)c(C(=O)NCc2ccco2)c1`, the solubility (kinetic) came to 47.5 µg/mL (≈ 109 µM).
On to `CN1C(=O)N(C)C2(C)CC1(C)N(C)C(=O)N2C`, for which the solubility (kinetic) is above 36 µg/mL.
Compound `CC(C)C1Oc2ccccc2N(CC(=O)N2CCOCC2)C1=O` (stereo not given) registered a kinetic solubility above 47.8 µg/mL.
In turn, `N#CN=C(c1ccccc1)c1ccccc1` displayed a solubility (kinetic) of 30.4 µg/mL (≈ 147 µM).
As to `Cc1ccc(C(C)C)cc1OCC(=O)Nc1ccccc1N1CCCC1`, the solubility (kinetic) was below 0.4 µg/mL.
`CC1(C)COC(Cn2c3ccccc3c3ccccc32)O1` (stereo not given): the solubility (kinetic) was below 0.6 µg/mL.
Consider `O=C(CSc1ccccn1)N1CCc2ccccc21`, for which the solubility (kinetic) is 3.7 µg/mL (≈ 13.7 µM).
In turn, `COC(=O)c1ccc(/C=C/c2nc3ccccc3c(=O)[nH]2)cc1` yielded a solubility (kinetic) of 3.7 µg/mL (≈ 12.1 µM).
`CCN(CC(=O)NCc1cccs1)C(=O)CCOc1ccccc1` returned a solubility (kinetic) above 52 µg/mL.
The result for `Cc1c(NC(=S)NC(=O)c2ccc(Cl)cc2)c(=O)n(-c2ccccc2)n1C` reads above 60.1 µg/mL; that for `O=C(/C=C/Nc1ccc(F)c(Cl)c1)c1ccccc1`, 0.7 µg/mL (≈ 2.54 µM).
`O=C(COC(=O)c1ccc([N+](=O)[O-])o1)NCc1ccc(F)cc1`: the solubility (kinetic) was above 48.3 µg/mL.
`CC(C)[C@H](NC(=O)OCc1ccccc1)C(=O)OCC(=O)c1ccccc1` showed a solubility (kinetic) of 16.1 µg/mL (≈ 43.6 µM).
Compound `COc1ccccc1Cn1c(=S)[nH]c2ccccc2c1=O` came in with a solubility (kinetic) of 0.5 µg/mL (≈ 1.68 µM).
Regarding `CCOc1ccc(C2(C)CC(=O)N(C)C2=O)cc1` (stereo not given), the kinetic solubility came to 11.4 µg/mL (≈ 46.1 µM).
The result for `Cc1cccc(NS(=O)(=O)c2ccc(C(=O)N3CCC3)cc2)c1C` reads 50.8 µg/mL (≈ 147 µM).
Then `CCN(CC)S(=O)(=O)c1ccc(NC(=S)Nc2ccccc2)cc1`, with 13 µg/mL (≈ 35.8 µM).
In the case of `O=C(CCC1CCCCC1)NCc1cccnc1`, the kinetic solubility is above 37 µg/mL.
The compound `Cc1cc(C(=O)NCC2CCCO2)sc1C` (stereo not given) displayed a solubility (kinetic) above 35.9 µg/mL.
Then `O=C(CN1CCOCC1)Nc1scc2c1c(=O)oc1ccccc12`, with below 0.4 µg/mL.
In turn, `Cc1cccc(N2CCN(C(=O)CNC(=O)Cc3ccccc3)CC2)c1C` came in with a kinetic solubility above 54.8 µg/mL.
The result for `O=Cc1cccn1-c1ccc2ccccc2c1` reads 15 µg/mL (≈ 67.8 µM); that for `O=C(OCC(=O)c1ccccc1Br)c1ccncc1`, above 48 µg/mL.
With `COc1ccc(CCNC(=O)C(=O)NCc2ccccn2)cc1`, the kinetic solubility was above 47 µg/mL.
For the compound `COc1ccccc1CC(=O)OCC(=O)N1CCN(c2ccc(F)cc2)CC1`, the solubility (kinetic) is above 58 µg/mL.
Take `CC(Sc1nncn1C)C(=O)Nc1ccc(S(N)(=O)=O)cc1` (stereo not given): the solubility (kinetic) was above 51.2 µg/mL.
With `COc1ccc(CC(=O)NCc2ccc3c(c2)cc(C)n3C)cc1OC`, the kinetic solubility was determined as 20.8 µg/mL (≈ 59 µM).
For the compound `COc1cc(NC(=O)CCCn2c(=O)oc3ccccc32)cc(OC)c1`, the kinetic solubility was 24.2 µg/mL (≈ 67.9 µM).
The compound `Cc1ccc(/C=C/c2ccc3cccc(O)c3n2)s1` gave a kinetic solubility of 1.4 µg/mL (≈ 5.24 µM).
The compound `COc1ccc(NC(=O)COc2ccccc2Cc2ccccc2)cn1` displayed a solubility (kinetic) of 12.2 µg/mL (≈ 35 µM).
The compound `CC(C)Oc1ccccc1C1NC(=O)CCC1[N+](=O)[O-]` (stereo not given) showed a solubility (kinetic) above 41.7 µg/mL.
Compound `O=C(CSc1nnc(-c2ccccc2F)o1)NC1CC1` came in with a kinetic solubility above 44 µg/mL.
The compound `COc1cccc(C(=O)NCCSc2c(C)[nH]c3ccccc23)c1OC` came in with a kinetic solubility of 16.1 µg/mL (≈ 43.5 µM).
With `Cc1c(C=O)c2ccccc2n1CC(=O)O`, the kinetic solubility is above 32.6 µg/mL.
Compound `CNC(=S)Nc1cccc(C(=O)OC)c1` had a solubility (kinetic) above 33.6 µg/mL.
`S=C(NC1CCCCC1)N1CCc2[nH]c3ccccc3c2C1` had a kinetic solubility of 1.3 µg/mL (≈ 4.15 µM).
For `C=C(C)C(=O)Nc1ccc2c(c1)OCCOCCOCCO2`, the kinetic solubility was 35.2 µg/mL (≈ 115 µM).
For `Oc1ccc(Cl)cc1CNc1ccccn1`, the solubility (kinetic) amounted to 6.5 µg/mL (≈ 27.7 µM).
For the compound `Cc1cccc(-n2cnc3sc(C)c(C)c3c2=O)c1`, the kinetic solubility came to 2.5 µg/mL (≈ 9.25 µM).
Regarding `CCOc1ccc(NC(=O)/C(C#N)=C/c2cn(CC(=O)O)c3ccccc23)cc1`, the kinetic solubility was above 58.4 µg/mL.
In the case of `O=C(NC1CCN(S(=O)(=O)c2ccccc2)CC1)c1ccccc1`, the solubility (kinetic) was below 0.4 µg/mL.
Then `COc1ccc(/C(N)=N/OC(=O)c2ccc(OC)c([N+](=O)[O-])c2)cc1OC`, with 0.6 µg/mL (≈ 1.6 µM); and `Cc1cc2c(cc1S(=O)(=O)N(C)c1ccccc1)NC(=O)CO2`, with 3.3 µg/mL (≈ 9.93 µM).
For `O=C(COC(=O)C1CCCC1)Nc1cccc(Cl)c1Cl`, the solubility (kinetic) was determined as 5.9 µg/mL (≈ 18.7 µM).
Take `O=C(O)/C(=C\c1ccco1)NC(=O)c1ccco1`: the solubility (kinetic) is above 37.1 µg/mL.
For the compound `CCCC(=O)N1CCN(Cc2nc3cc([N+](=O)[O-])ccc3n2C)CC1`, the kinetic solubility is above 51.8 µg/mL.
Compound `Cn1ccsc1=NC(=O)c1ccccc1OC(F)F` had a kinetic solubility of 38.7 µg/mL (≈ 136 µM).
`O=C(Oc1ccccc1)N1CCCC1` came in with a kinetic solubility of 24.8 µg/mL (≈ 130 µM).
The result for `CN1CC(C(=O)c2ccccc2)C(c2ccccc2)C1` (stereo not given) reads above 39.8 µg/mL; that for `CN1CCN(CC(=O)Nc2c(C(=O)c3ccccc3)oc3ccccc23)CC1`, 48.4 µg/mL (≈ 128 µM).
Compound `Cc1ccc(C)c(N2CN(CCC3=CCCCC3)CNC2=S)c1` gave a kinetic solubility of 38.7 µg/mL (≈ 117 µM).
Then `CCC1(c2ccccc2)NC(=O)N(CC(=O)N2CCc3ccccc32)C1=O` (stereo not given), with 6.8 µg/mL (≈ 18.7 µM); and `O=[N+]([O-])c1cccc(Nc2c3ccccc3nc3ccccc23)c1`, with 2.8 µg/mL (≈ 8.88 µM); and `Cc1ccc(C2=NN(CC(=O)NCCN(C)C)C(=O)CC2)cc1`, with above 47.5 µg/mL.
On to `CSc1ncc(C(=O)Nc2ccccc2Cl)c(C)n1`, for which the kinetic solubility is 39.6 µg/mL (≈ 135 µM).
Take `Cc1ccc(OCC(=O)NCCCNC(=O)c2ccccn2)cc1`: the solubility (kinetic) is above 49.1 µg/mL.
Take `Cc1ccc2[nH]c(CNC(=O)c3ccc(F)cc3)cc2c1`: the kinetic solubility came to 4.7 µg/mL (≈ 16.6 µM).
In the case of `Cc1cc(CSc2nc(C)cc(=O)[nH]2)c2ncccc2c1`, the solubility (kinetic) was 8.7 µg/mL (≈ 29.3 µM).
Turning to `CS(=O)(=O)N(CC(=O)N1CCCCCC1)c1cccc(F)c1`, the kinetic solubility was above 49.3 µg/mL.
For the compound `O=C(CCCCCCC(=O)NCc1ccccc1)NCc1ccccc1`, the kinetic solubility is 1.4 µg/mL (≈ 3.97 µM).
The result for `CCC1CN(C(=O)NCc2cccc(OC)c2)c2cc(Cl)ccc2O1` (stereo not given) reads 4.5 µg/mL (≈ 12.5 µM); that for `O=C(Nc1ccc(Nc2ccccc2)cc1)c1cccc(F)c1`, 0.8 µg/mL (≈ 2.61 µM); that for `O=C(CN1CCCC1)OCCCC1CCCCC1`, 17.9 µg/mL (≈ 70.6 µM).
With `COc1ccc(NC2(C#N)CCCCC2)cc1`, the kinetic solubility stood at 12.4 µg/mL (≈ 53.8 µM).
The compound `CN(C)c1ccc(C(=O)C(=O)c2ccccc2)cc1` registered a kinetic solubility of 10.8 µg/mL (≈ 42.6 µM).
Compound `O=C1CNC(=S)N1CCOc1ccccc1` gave a solubility (kinetic) of 30.4 µg/mL (≈ 129 µM).
`O=C(Nc1cccc(S(=O)(=O)N2CCCCCC2)c1)c1ccc(Cl)nc1` displayed a kinetic solubility of 8.2 µg/mL (≈ 20.8 µM).
Then `Cc1sc(N)nc1-c1ccc(Oc2ccccc2)cc1`, with 2.1 µg/mL (≈ 7.44 µM).
In turn, `COc1ccccc1NC(=O)COc1cccc2c1CCNC2=O` displayed a solubility (kinetic) of 6.9 µg/mL (≈ 21.1 µM).
